{"source": "patent US10933021B2", "about": "“Compositions of gallium (III) complexes for oral administration” (Altum Pharmaceuticals Inc., priority 2017, dated 2021)", "origin": "cited, not measured here", "key": {"[1]": {"conditions": "pH values below the pKa of 8-hydroxyquinoline (5.01)"}, "transferrin (Tf)": {"target": "transferrin (Tf) (Homo sapiens, UniProt P02787)", "sequence (P02787 20-698)": "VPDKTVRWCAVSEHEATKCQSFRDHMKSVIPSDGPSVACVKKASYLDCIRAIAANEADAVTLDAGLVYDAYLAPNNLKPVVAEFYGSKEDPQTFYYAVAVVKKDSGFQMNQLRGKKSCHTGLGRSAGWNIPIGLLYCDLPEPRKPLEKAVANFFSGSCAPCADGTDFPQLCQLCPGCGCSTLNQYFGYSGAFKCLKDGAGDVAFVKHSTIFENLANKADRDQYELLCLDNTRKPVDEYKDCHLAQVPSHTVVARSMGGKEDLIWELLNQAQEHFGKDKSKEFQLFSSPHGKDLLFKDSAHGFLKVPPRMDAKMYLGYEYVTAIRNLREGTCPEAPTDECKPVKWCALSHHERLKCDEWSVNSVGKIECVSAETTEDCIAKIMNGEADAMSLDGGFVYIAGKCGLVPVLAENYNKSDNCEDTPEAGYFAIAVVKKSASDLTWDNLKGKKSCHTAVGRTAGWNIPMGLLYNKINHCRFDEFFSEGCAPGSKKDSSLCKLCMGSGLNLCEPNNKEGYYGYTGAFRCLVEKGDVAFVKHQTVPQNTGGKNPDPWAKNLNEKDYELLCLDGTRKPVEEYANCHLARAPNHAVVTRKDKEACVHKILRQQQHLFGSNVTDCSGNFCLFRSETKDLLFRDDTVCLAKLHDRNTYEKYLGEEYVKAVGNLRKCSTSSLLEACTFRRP", "conditions": "human serum"}, "albumin": {"target": "albumin (Homo sapiens, UniProt P02768)", "sequence (P02768 25-609)": "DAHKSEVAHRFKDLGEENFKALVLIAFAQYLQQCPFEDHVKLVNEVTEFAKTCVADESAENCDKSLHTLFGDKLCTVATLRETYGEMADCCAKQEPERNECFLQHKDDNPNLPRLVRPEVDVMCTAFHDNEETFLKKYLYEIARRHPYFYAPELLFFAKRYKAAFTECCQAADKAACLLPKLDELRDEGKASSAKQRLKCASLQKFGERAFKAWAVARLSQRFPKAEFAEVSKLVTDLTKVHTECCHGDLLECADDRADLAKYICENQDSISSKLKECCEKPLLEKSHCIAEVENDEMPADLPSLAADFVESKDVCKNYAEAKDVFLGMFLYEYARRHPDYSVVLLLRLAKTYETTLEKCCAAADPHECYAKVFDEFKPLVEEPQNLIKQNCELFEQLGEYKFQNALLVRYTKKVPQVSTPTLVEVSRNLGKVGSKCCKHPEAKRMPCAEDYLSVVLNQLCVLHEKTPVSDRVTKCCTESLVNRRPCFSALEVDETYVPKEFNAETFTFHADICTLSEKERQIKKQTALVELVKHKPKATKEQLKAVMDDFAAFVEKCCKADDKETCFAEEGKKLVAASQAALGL", "conditions": "human serum"}, "apoptosis induction": {"tested_on": "apoptosis induction", "conditions": "compared to simple gallium salts such as gallium nitrate"}, "[2]": {"conditions": "pH 7.4, serum"}, "[3]": {"tested_on": "tumor cell lines resistant to gallium nitrate"}, "[4]": {"conditions": "seven patients, oral enteric coated tablets of crystalline GaQ3, 10 mg, 20 mg, 30 mg strengths"}}}
{"smiles": "[Ga+3].[O-]c1cccc2cccnc12.[O-]c1cccc2cccnc12.[O-]c1cccc2cccnc12", "note": "[GaQ3, tris (8-quinolinolato) gallium (III)]", "values": [{"measurement": "integrity of complexed structure", "setting": "[1]", "value": "disrupted completely"}, {"measurement": "binding to transferrin (Tf)", "setting": "transferrin (Tf)", "value": "strongly"}, {"measurement": "binding to albumin", "setting": "albumin", "value": "binds very weakly"}, {"measurement": "apoptosis induction relative to gallium nitrate", "setting": "apoptosis induction", "value": "ca. 3 ×"}, {"measurement": "stability in serum", "setting": "[2]", "value": "very stable"}, {"measurement": "activity against tumor cell lines resistant to gallium nitrate", "setting": "[3]", "value": "active"}, {"measurement": "solubility in water", "value": "18-22 ppm"}, {"measurement": "tolerability", "setting": "[4]", "value": "well tolerated"}]}
